Inconclusive results and toxic doses are left out. Rule as the data show it: active = T/C of 150% or more; inactive = T/C below 125%.
Test system: L1210 leukemia ip in BDF1 mice, survival T/C
Test: NCI In Vivo Anticancer Drug Screen. Data for tumor model L1210 Leukemia (intraperitoneal) in B6D2F1 (BDF1) mice
Conditions: endpoint: mean survival time, higher = longer survival
In short: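 Tumor was transplanted into mice, which were then dosed with test compound or vehicle alone. Survival was recorded for each group, and the treated figure was expressed relative to the control figure.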

[1] = dose: 100.0 mg/kg/injection, schedule: Q01DX009 (ip), vehicle: Klucel (hydroxypropylcellulose) (HPC)
[2] = dose: 100.0 mg/kg/injection, schedule: Q04DX003 (ip), vehicle: Klucel (hydroxypropylcellulose) (HPC)
[3] = dose: 200.0 mg/kg/injection, schedule: Q01DX009 (ip), vehicle: Klucel (hydroxypropylcellulose) (HPC)
[4] = dose: 200.0 mg/kg/injection, schedule: Q04DX003 (ip), vehicle: Klucel (hydroxypropylcellulose) (HPC)
[5] = dose: 400.0 mg/kg/injection, schedule: Q01DX009 (ip), vehicle: Klucel (hydroxypropylcellulose) (HPC)
[6] = dose: 400.0 mg/kg/injection, schedule: Q04DX003 (ip), vehicle: Klucel (hydroxypropylcellulose) (HPC)
[7] = dose: 100.0 mg/kg/injection, schedule: Q01DX001 (ip), vehicle: saline
[8] = dose: 100.0 mg/kg/injection, schedule: Q04DX003 (ip), vehicle: saline
[9] = dose: 200.0 mg/kg/injection, schedule: Q04DX003 (ip), vehicle: saline
[10] = dose: 400.0 mg/kg/injection, schedule: Q04DX003 (ip), vehicle: saline
[11] = dose: 100.0 mg/kg/injection, schedule: Q01DX009 (ip), vehicle: saline with Tween-80
[12] = dose: 200.0 mg/kg/injection, schedule: Q01DX009 (ip), vehicle: saline with Tween-80
[13] = dose: 100.0 mg/kg/injection, schedule: Q04DX003 (ip), vehicle: saline with Tween-80
[14] = dose: 50.0 mg/kg/injection, schedule: Q01DX009 (ip), vehicle: Klucel (hydroxypropylcellulose) (HPC)
[15] = dose: 100.0 mg/kg/injection, schedule: Q04DX002 (ip), vehicle: Klucel (hydroxypropylcellulose) (HPC)
[16] = dose: 200.0 mg/kg/injection, schedule: Q04DX002 (ip), vehicle: Klucel (hydroxypropylcellulose) (HPC)
[17] = dose: 400.0 mg/kg/injection, schedule: Q04DX002 (ip), vehicle: Klucel (hydroxypropylcellulose) (HPC)
[18] = dose: 100.0 mg/kg/injection, schedule: Q01DX009 (ip), vehicle: saline
[19] = dose: 200.0 mg/kg/injection, schedule: Q01DX009 (ip), vehicle: saline
[20] = dose: 400.0 mg/kg/injection, schedule: Q01DX009 (ip), vehicle: saline

Measured: T/C

C/C(=N/N=C(N)N)c1ccc(F)cc1
inactive: dose: 15.0 mg/kg/injection, schedule: Q01DX Z (ip), vehicle: carboxymethylcellulose (CMC) 95 % of control | dose: 15.0 mg/kg/injection, schedule: Q01DX Z (oral), vehicle: carboxymethylcellulose (CMC) 113 % of control | dose: 30.0 mg/kg/injection, schedule: Q01DX Z (ip), vehicle: carboxymethylcellulose (CMC) 100 % of control | dose: 30.0 mg/kg/injection, schedule: Q01DX Z (oral), vehicle: carboxymethylcellulose (CMC) 98 % of control | dose: 60.0 mg/kg/injection, schedule: Q01DX Z (oral), vehicle: carboxymethylcellulose (CMC) 103 % of control

COc1ccc(Cl)cc1NC(=O)NC(Cc1ccccc1)c1ccccc1 (stereo not drawn)
inactive: [1] 102 % of control | [2] 101 % of control | [3] 100 % of control | [4] 103 % of control | [5] 105 % of control | [6] 103 % of control

CC(=O)c1ccc(OC(=O)C(C)(C)C)cc1
inactive: [7] 97 % of control | dose: 200.0 mg/kg/injection, schedule: Q01DX001 (ip), vehicle: saline 103 % of control | dose: 400.0 mg/kg/injection, schedule: Q01DX001 (ip), vehicle: saline 98 % of control

O=CC(O)C(O)C(OC1OC(CO)C(OC2OC(CO)C(O)C(O)C2O)C(O)C1O)C(O)CO (stereo not drawn)
inactive: [8] 93 % of control | [9] 93 % of control | [10] 94 % of control

O=C1OC(Cc2ccccc2)(c2ccccc2)c2ccccc21 (stereo not drawn)
inactive: dose: 50.0 mg/kg/injection, schedule: Q01DX009 (ip), vehicle: saline with Tween-80 90 % of control | [11] 88 % of control | [12] 89 % of control

CC1C(=O)OC2C1CCC1(C)C3(C)C(=O)C=CC213 (stereo not drawn)
inactive: dose: 75.0 mg/kg/injection, schedule: Q01DX001 (ip), vehicle: saline 97 % of control | dose: 150.0 mg/kg/injection, schedule: Q01DX001 (ip), vehicle: saline 106 % of control | dose: 300.0 mg/kg/injection, schedule: Q01DX001 (ip), vehicle: saline 95 % of control

CCCOc1ccc(-c2nc(-c3ccc(N=Cc4ccc(N(CCCOS(C)(=O)=O)CCCOS(C)(=O)=O)cc4)cc3)cs2)cc1
inactive: [13] 91 % of control | dose: 200.0 mg/kg/injection, schedule: Q04DX003 (ip), vehicle: saline with Tween-80 86 % of control | dose: 400.0 mg/kg/injection, schedule: Q04DX003 (ip), vehicle: saline with Tween-80 89 % of control

Cc1nc(-c2ccccc2)nc2c1CCO2
inactive: [11] 100 % of control | [12] 107 % of control

COc1ccc(NC(=O)Nc2ccccc2C(N)=O)cc1
inactive: [14] 93 % of control | [1] 93 % of control | [3] 96 % of control

COC(=O)C(COC1OC(COC(C)=O)C(OC(C)=O)C(OC(C)=O)C1NC(C)=O)NC(=O)OCc1ccccc1 (stereo not drawn)
inactive: dose: 50.0 mg/kg/injection, schedule: Q04DX002 (ip), vehicle: Klucel (hydroxypropylcellulose) (HPC) 91 % of control | [15] 98 % of control | [16] 88 % of control

[N-]=[N+]=Nc1nc2c(N)ncnc2n1C1OC(CO)C(O)C1O (stereo not drawn)
inactive: dose: 25.0 mg/kg/injection, schedule: Q01DX001 (ip), vehicle: saline 102 % of control | dose: 50.0 mg/kg/injection, schedule: Q01DX001 (ip), vehicle: saline 105 % of control | [7] 103 % of control

C1=C(c2ccccc2)N(C2CCCC2)C(c2ccccc2)=CN1Cc1ccccc1
inactive: [15] 100 % of control | [16] 95 % of control | [17] 97 % of control

O=S(=O)(Nc1c(O)ccc2ccccc12)c1ccccc1
inactive: [11] 95 % of control | [12] 93 % of control | dose: 400.0 mg/kg/injection, schedule: Q01DX009 (ip), vehicle: saline with Tween-80 90 % of control

CC(C)(C)NC/C(=C\c1ccccc1)C(=O)c1ccccc1
inactive: dose: 5.0 mg/kg/injection, schedule: Q01DX001 (ip), vehicle: saline 98 % of control | dose: 10.0 mg/kg/injection, schedule: Q01DX001 (ip), vehicle: saline 101 % of control | dose: 20.0 mg/kg/injection, schedule: Q01DX001 (ip), vehicle: saline 98 % of control | dose: 25.0 mg/kg/injection, schedule: Q01DX009 (ip), vehicle: Klucel (hydroxypropylcellulose) (HPC) 100 % of control | dose: 40.0 mg/kg/injection, schedule: Q01DX001 (ip), vehicle: saline 93 % of control | [14] 98 % of control | dose: 80.0 mg/kg/injection, schedule: Q01DX001 (ip), vehicle: saline 95 % of control | [1] 95 % of control | [2] 94 % of control | [13] 112 % of control | [4] 91 % of control | [6] 96 % of control

CC(CN1CCN(CCOCCO)CC1)CN1c2ccccc2Sc2ccccc21 (stereo not drawn)
inactive: dose: 3.12 mg/kg/injection, schedule: Q01DX009 (ip), vehicle: saline 103 % of control | dose: 6.25 mg/kg/injection, schedule: Q01DX009 (ip), vehicle: saline 97 % of control | dose: 12.5 mg/kg/injection, schedule: Q01DX009 (ip), vehicle: saline 108 % of control | dose: 25.0 mg/kg/injection, schedule: Q01DX009 (ip), vehicle: saline 113 % of control | dose: 25.0 mg/kg/injection, schedule: Q04DX003 (ip), vehicle: saline 96 % of control | dose: 50.0 mg/kg/injection, schedule: Q04DX003 (ip), vehicle: saline 102 % of control

C#CCOC(=O)Nc1cccc(Cl)c1
inactive: [1] 95 % of control | [2] 97 % of control | [3] 97 % of control | [4] 106 % of control | [5] 95 % of control | [6] 90 % of control

O=C(C[n+]1c(Cl)ccc2ccccc21)c1ccccc1
inactive: dose: 75.0 mg/kg/injection, schedule: Q01DX001 (ip), vehicle: other 94 % of control | dose: 150.0 mg/kg/injection, schedule: Q01DX001 (ip), vehicle: other 100 % of control

Nc1ccc(C(=O)O)c([N+](=O)[O-])c1
inactive: [18] 102 % of control | [8] 98 % of control | [19] 100 % of control | [9] 93 % of control | [20] 100 % of control | [10] 94 % of control

C=C1C(=O)OC2CCCCCCC12 (stereo not drawn)
inactive: dose: 50.0 mg/kg/injection, schedule: Q01DX009 (ip), vehicle: saline 95 % of control | [18] 95 % of control

O=C(NC1OCC(O)C(O)C1O)Oc1ccccc1 (stereo not drawn)
inactive: [18] 108 % of control | dose: 100.0 mg/kg/injection, schedule: Q04DX003 (ip), vehicle: water 97 % of control | [19] 97 % of control | dose: 200.0 mg/kg/injection, schedule: Q04DX003 (ip), vehicle: water 96 % of control | [20] 101 % of control | dose: 400.0 mg/kg/injection, schedule: Q04DX003 (ip), vehicle: water 100 % of control

C1=NC(c2ccccc2)=CN(C2CCCCCCC2)C1(c1ccccc1)C1CCCCCCC1 (stereo not drawn)
inactive: dose: 50.0 mg/kg/injection, schedule: Q04DX002 (ip), vehicle: saline 99 % of control | [15] 95 % of control | dose: 100.0 mg/kg/injection, schedule: Q04DX002 (ip), vehicle: saline 99 % of control | [16] 92 % of control | [17] 92 % of control

From PubChem BioAssay AID248 (DTP/NCI, 2004)
